# Strand notation (5' to 3'): a small letter for the sugar, then the base; units joined by * are phosphorothioate-linked, units joined directly phosphodiester-linked; [ ] holds rarer units or linkages, { } end groups; capitals alone tell only the bases. e = 2'-O-(2-methoxyethyl) (MOE); [5mC] = 5-methylcytosine; d = 2'-deoxy (DNA)
# Assays:
# [1] = tested on: basal vascular permeability; test: Combination of PKK and Factor 12 antisense oligonucleotides on basal vascular permeability (Example 16); type: in vivo, mouse; conditions: positive control: PBS + HOE-140 30 μg ip
# Method: Mice were treated with varying doses of ISIS 410944, an antisense oligonucleotide targeting Factor 12, and ISIS 482584 in a basal vascular permeability model.
# Group 1 consisted of 8 mice and was treated with PBS administered subcutaneously twice a week for 3 weeks. No other treatment was administered to Group 1 which served as a control group to measure the basal levels of vascular permeability.
# Group 2 consisted of 4 mice and was treated with PBS administered subcutaneously twice a week for 3 weeks. At the end of the treatment period, the mice were intraperitoneally administered 30 μg of HOE-140. Group 2 served as a positive control for inhibition of basal vascular permeability.
# Groups 3, 4, 5, 6, and 7 consisted of 8 mice each and were treated with 2.5 mg/kg, 5 mg/kg, 10 mg/kg, 20 mg/kg, or 40 mg/kg (corresponding to 5 mg/kg, 10 mg/kg, 20 mg/kg, 40 mg/kg, or 80 mg/kg per week), respectively of ISIS 482584 and ISIS 410944 each administered subcutaneously twice a week for 3 weeks. Groups 3-7 served as the experimental treatment groups for examining the effect of ISIS 410944 and ISIS 482584 on basal vascular permeability.
# All the groups were then injected with 30 mg/kg of Evans Blue solution in the tail vein. The mice were sacrificed 30 min after the Evans Blue solution administration and colons, feet, ears, and intestines were harvested.
# The harvested tissues from the feet, colon, intestines, and ears were placed in formamide solution overnight to leach out the Evans Blue dye. The formamide solution containing feet and ear tissue was heated to 55° C. and left overnight. Higher OD values are associated with higher levels of permeability.
# PKK protein = test: Plasma PKK protein levels in human KLKB1 transgenic mice (Example 7); type: in vivo; conditions: transgenic mice
# In short: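 Human KLKB1 transgenic mice dosed subcutaneously twice weekly for 3 weeks with antisense oligonucleotides at 2.5, 5.0, 10 or 20 mg/kg/week. Plasma collected 48 hours after the final dose; PKK protein expressed as percent inhibition relative to PBS-treated controls.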
# human PKK mRNA = test: Dose-dependent antisense inhibition of human PKK in HepaRG cells, 0.12-10.00 uM (Example 4); type: cell-based; conditions: electroporation, ~16 h
# Method: Cells were plated at a density of 20,000 cells per well and transfected using electroporation with 0.12 μM, 0.37 μM, 1.11 μM, 3.33 μM, and 10.00 μM concentrations of antisense oligonucleotide. After a treatment period of approximately 16 hours, RNA was isolated from the cells and PKK mRNA levels were measured by quantitative real-time PCR. Human PKK primer probe set RTS3454 was used to measure mRNA levels. PKK mRNA levels were adjusted according to total RNA content, as measured by RIBOGREEN®. The antisense oligonucleotides were tested in a series of experiments that had similar culture conditions. Results are presented as percent inhibition of PKK, relative to untreated control cells.
# The half maximal inhibitory concentration (IC50) of each oligonucleotide is also presented.
# [2] = Tail bleeding assay (Example 20); type: in vivo, mouse; conditions: BALB/c mice; for Bleeding: blood collected over 40 minutes
# Method: Tail-bleeding was measured to observe whether treatment with ISIS 482584 causes excess bleeding or hemorrhage in mice.
# Groups of 10 male BALB/c mice were treated with 10 mg/kg, 20 mg/kg, or 40 mg/kg of ISIS 482584, administered subcutaneously twice a week for 3 weeks (weekly doses of 20 mg/kg, 40 mg/kg, or 80 mg/kg). A control group of 8 BALB/c mice was treated with PBS, administered subcutaneously twice a week for 3 weeks.
# Two days after the final treatment of ISIS oligonucleotides or PBS, mice were placed in a tail bleeding chamber. Mice were anesthetized in the chamber with isoflurane. Then, a small piece of tail (approximately 4 mm from the tip) was cut with sterile scissors. The cut tail was immediately placed in a 15 mL Falcon tube filled with approximately 10 mL of 0.9% NaCl buffer solution warmed to 37° C. The blood was collected over the course of 40 minutes. The saline filled tubes were weighed both before and after bleeding.
# [3] = tested on: high molecular weight kininogen (HMWK); test: Western blot quantification of HMWK and HMWK cleavage product by densitometer (Example 14); type: in vivo, mouse; conditions: for Quantification of HMWK by densitometer / Quantification of HMWK cleavage product by densitometer: Western blot of blood samples, basal model
# Excerpt: Treatment with PKK antisense oligonucleotide results in stabilization of HMWK. Thus, vascular permeability is reduced in ISIS 482584-treated groups in a dose-dependent manner. […] Thus, reduced HMWK is caused by PKK cleavage of HMWK into cleavage products (including bradykinin and HKa). Data are presented in Intensity Units as measured by densitometer.
molecule,measurement,setting,value
"NC(N)=NCCC[C@@H](N)C(=O)N[C@@H](CCCN=C(N)N)C(=O)N1CCC[C@H]1C(=O)N1C[C@H](O)C[C@H]1C(=O)NCC(=O)N[C@@H](Cc1cccs1)C(=O)N[C@@H](CO)C(=O)N1Cc2ccccc2C[C@@H]1C(=O)N1[C@H](C(=O)N[C@@H](CCCN=C(N)N)C(=O)O)C[C@@H]2CCCC[C@@H]21 [HOE-140, Icatibant, reference compound]","OD600 nm of Evans Blue dye, Colon",[1],0.14
same,"OD600 nm of Evans Blue dye, Ears",[1],0.008
same,"OD600 nm of Evans Blue dye, Feet",[1],0.04
same,"OD600 nm of Evans Blue dye, Intestines",[1],0.08
Tes Ges mCes Aes Aes Gds Tds mCds Tds mCds Tds Tds Gds Gds mCds Aes Aes Aes mCes Ae [ISIS 546254],human PKK protein inhibition,PKK protein; 2.5 mg/kg/week s.c. twice a week for 3 weeks,0%
same,human PKK protein inhibition,PKK protein; 5.0 mg/kg/week s.c. twice a week for 3 weeks,36%
same,human PKK protein inhibition,PKK protein; 10 mg/kg/week s.c. twice a week for 3 weeks,51%
same,human PKK protein inhibition,PKK protein; 20 mg/kg/week s.c. twice a week for 3 weeks,76%
531231 (eT*eA*eT*e[5mC]*eA*d[5mC]*dT*dG*dT*dA*d[5mC]*dT*dA*dG*dT*eT*eT*e[5mC]*e[5mC]*eT) [compound 531231],percent inhibition of PKK at 0.12 μM,"human PKK mRNA; Table 32, 0.12 μM",23%
same,percent inhibition of PKK at 0.37 μM,"human PKK mRNA; Table 32, 0.37 μM",30%
same,percent inhibition of PKK at 1.11 μM,"human PKK mRNA; Table 32, 1.11 μM",76%
same,percent inhibition of PKK at 3.33 μM,"human PKK mRNA; Table 32, 3.33 μM",89%
same,percent inhibition of PKK at 10.00 μM,"human PKK mRNA; Table 32, 10.00 μM",94%
same,IC50,"human PKK mRNA; Table 32, PKK mRNA",600 nM
same,percent inhibition of PKK at 0.12 μM,"human PKK mRNA; Table 33, 0.12 μM",18%
same,percent inhibition of PKK at 0.37 μM,"human PKK mRNA; Table 33, 0.37 μM",0%
same,percent inhibition of PKK at 1.11 μM,"human PKK mRNA; Table 33, 1.11 μM",36%
same,percent inhibition of PKK at 3.33 μM,"human PKK mRNA; Table 33, 3.33 μM",76%
same,percent inhibition of PKK at 10.00 μM,"human PKK mRNA; Table 33, 10.00 μM",84%
same,IC50,"human PKK mRNA; Table 33, PKK mRNA",2000 nM
"ISIS 482584: 5-10-5 MOE gapmer targeting murine PKK, GGCATATTGGTTTTTGGAAT; SEQ ID NO: 2244 (antisense eG*eG*e[5mC]*eA*eT*dA*dT*dT*dG*dG*dT*dT*dT*dT*dT*eG*eG*eA*eA*eT)",Bleeding,[2]; 20 mg/kg/wk sc 3 weeks,0.03 mL
same,Bleeding,[2]; 40 mg/kg/wk sc 3 weeks,0.14 mL
same,Bleeding,[2]; 80 mg/kg/wk sc 3 weeks,0.07 mL
same,tail bleeding,[2]; 10-40 mg/kg s.c. twice a week for 3 weeks,did not significantly affect bleeding
same,Quantification of HMWK by densitometer,[3]; 10 mg/kg/week,507 Intensity Units
same,Quantification of HMWK cleavage product by densitometer,[3]; 10 mg/kg/week,414774 Intensity Units
same,Quantification of HMWK by densitometer,[3]; 20 mg/kg/week,608 Intensity Units
same,Quantification of HMWK cleavage product by densitometer,[3]; 20 mg/kg/week,403360 Intensity Units
same,Quantification of HMWK by densitometer,[3]; 40 mg/kg/week,873 Intensity Units
same,Quantification of HMWK cleavage product by densitometer,[3]; 40 mg/kg/week,388135 Intensity Units
same,Quantification of HMWK by densitometer,[3]; 80 mg/kg/week,7279 Intensity Units
same,Quantification of HMWK cleavage product by densitometer,[3]; 80 mg/kg/week,204482 Intensity Units
same,Quantification of HMWK by densitometer,[3]; 160 mg/kg/week,21358 Intensity Units
same,Quantification of HMWK cleavage product by densitometer,[3]; 160 mg/kg/week,19936 Intensity Units
same,HMWK cleavage product,"[3]; vs PBS control, dose-dependent",lower HMWK cleavage product
same,levels of HMWK,"[3]; vs PBS control, dose-dependent",higher levels of HMWK
